For assay [1], the system named is RIP1-Tag2 angiogenic islets and tumors. Nature of the assay: In vivo homing of phage (pools and individual phage) in RIP1-Tag2 mice. Particulars: phage-displayed peptide, i.v., FIG. 1D, with ex vivo binding patterns. Also noted: species or system mouse. As for the experimental part: For in vivo selection of phage that home specifically to premalignant lesions and malignant tumors, the ex vivo pre-selected phage pool was injected intravenously into 12 week old RIP1-Tag2 mice through the tail vein, allowed to circulate for 7 minutes and heart-perfused with PBS to remove unbound intravascular phage. As the vasculature is preferentially available for the phage to bind in this selection, there is an enrichment of phage that bind to the endothelium of the target tissue.
The RIP1-Tag2 lesions and control tissues (brain, kidney, spleen, lung, ‘white’ pancreas lacking hemorrhagic lesions and liver were excised to allow for comparison of homing efficiencies. Cell suspensions were prepared by mechanical disruption of the tissues. Tissues were washed to remove unbound phage, and the bound phage rescued and amplified by adding E. coli. The phage pool was re-injected into mice at a similar disease stage, and the cycle repeated. In each experiment, non-recombinant control phage were used as a control for relative selectivity.
Sets of 96 phage clones were randomly collected from each homing phage population that selectively homed to premalignant angiogenic islets or pancreatic tumor cells. Peptide-encoding DNA inserts from collected phage clones were amplified by PCR, and the PCR products sequenced. Phage representing the most frequently appearing peptide motifs were individually tested for their ability to selectively home to the lesions on which they were selected, relative to other stages in the tumorigenesis pathway and to control organs. Six of the phage selected for further analysis were from the tumor screen (referred to as KAA, RGR, RSR, VGVA, VGVG and KAR), and one (EYQ) was picked from the angiogenic screen.

The subject of assay [2] is bTC3-derived subcutaneous transplant tumor in a nude mouse. Nature of the assay: Homing to bTC3 subcutaneous tumor. The class given is in vivo. Particulars: FIG. 4A. As for the experimental part: (§1) To determine whether phage identified to home to pancreatic tumors also home to other types of tumors, these phage were tested using animals having various types of tumors, including bTC3 subcutaneous tumor and MDA MB-435 subcutaneous tumor. bTC3 transplant tumors arise following subcutaneous inoculation of nude mice with cultured islet tumor-derived (bTC3) cells (Efrat et al., 1988). Since the vasculature of a subcutaneously grown bTC3 tumor derives from skin, we also tested another subcutaneous transplant tumor, arising from inoculation of the MDA-MB-435 human breast carcinoma cell line. Finally, K14-HPV16 mice, another well-studied transgenic mouse model of cancer that develop tumors of the squamous epithelial cells of the skin (Arbeit et al., 1994; Coussens et al., 1996), was used to compare RIP1-Tag2 islet tumors to a tumor with similar multistage pathogenesis arising in a different tissue.
(§2) Tumors were dissected from the ear or chest of K14-HPV16 mice. For the bTC3 allograft models, 10^6 bTC3 tumor cells (Efrat et al., 1988) were inoculated under the skin of the rear flank of nu/nu mice in a BALB/c background and allowed to grow until approximately 5 mm in size, and then used for experimental analysis. MDA-MB-435 xenograft models were generated by inoculating 10^6 tumor cells subcutaneously in the chest of nu/nu Balb/c mice. Tumors were used for the homing/binding experiments at 8-12 weeks after injection of the tumor cells.

Assay [3] concerns squamous cell carcinoma in a K14-HPV16 mouse. Nature of the assay: Homing to HPV tumor. The assay is classed as in vivo. Particulars: FIG. 4A. On the procedure: as §1, §2
Assay [4] has as its target T1, PDGFRβ (Homo sapiens, UniProt P09619).
T1 construct: expressed in transfected cells; host or cells: 293T cells
Nature of the assay: Phage binding to transfected 293T cells (plaque assay). Particulars: FIG. 5A. As for the experimental part:
To confirm that the RGR peptide binds specifically to PDGFRβ, phage displaying this peptide were incubated with 293T cells overexpressing PDGFRβ. Recombinant 293T cells were prepared by transfecting with plasmids encoding PDGFRβ or VEGFR-2 (Borges et al., 2000) using Fugene transfection reagent (Roche Diagnostics). Briefly, 10 μg of plasmid was mixed with 700 μl of DMEM without serum and 30 μl of Fugene reagent, and incubated for 15 minutes at room temperature before adding the mixture to the cells. Forty-eight hours post-transfection the cells were detached from the culture plates using EDTA and washed once with PBS. Recombinant phage displaying the RSR, RGR peptides and control nonrecombinant phage (about 1×10^9 pfu) were incubated with the transfected cells for 2 hours at 4° C., followed by 5 washes with 1% BSA in PBS to remove the unbound phage. The bound phage were rescued by adding bacteria, and the binding efficiencies were determined by plaque assay.

The target of assay [5] is T2, PDGFRβ (Mus musculus, UniProt P05622).
T2 construct: from tissue; host or cells: pancreatic islet tumors of RIP1-Tag2 transgenic mice
Nature of the assay: Co-localization of i.v. injected fluorescein-conjugated peptide with PDGFRβ immunostaining in RIP1-Tag2 tumors. The class given is in vivo. Particulars: tissue sections from RIP1-Tag2 tumors, FIG. 5B. On the procedure: For immunohistochemistry, frozen slides were pre-incubated with blocking buffer (1×PNB from NEN Biosciences) for one hour, washed several times in 1×PBS and incubated with the primary antibody of interest overnight at 4° C. The cell-specific antibodies used were rat monoclonal anti-mouse CD31 (1:200; BD Pharmingen), rat monoclonal anti-mouse MECA-32 (1:200; BD Pharmingen), rabbit polyclonal anti-mouse NG2 (1:200; Chemicon), and rat monoclonal anti-mouse PDGFRb (CD140b) (1:200; eBioscience). The corresponding secondary antibodies; Cy-3 donkey anti-rabbit IgG and Rhodamine Red donkey anti-rat IgG (Jackson ImmunoResearch), were used at a 1:200 dilution and incubated for one hour at room temperature. The following species-matched immunoglobulins were used as negative controls; rabbit IgG (Vector Laboratories) and rat IgG (Jackson ImmunoResearch) at a 1:200 dilution. The slides were washed several times in 1×PBS and mounted in Vectashield Mounting Medium with DAPI (Vector Laboratories). Hematoxylin and eosin (H&E) staining was performed for histological grading of adjacent sections by standard methods, and lesions were graded as previously described (Lopez and Hanahan, 2002).
FIG. 5A is a bar graph showing binding of RGR or RSR phage to 293 cells transfected with either PDGFRβ, VEGFR2, or non-transfected cells.

For assay [6], the system named is RIP1-Tag2 angiogenic islets and tumors. Put plainly: Localization of fluorescein-conjugated peptides after intravenous injection. The assay is classed as in vivo, mouse. As for the experimental part: Fluorescein-conjugated peptides corresponding to phage insert sequences were synthesized using an automated peptide synthesizer with standard solid-phase fluorenylmethoxycarbonyl (Fmoc) chemistry. […] of each individual fluorescein-conjugated peptide was injected intravenously into the tail vein of RIP1-Tag2 mice at 8 or 12 weeks of age, and into normal BL/6 mice. The peptide was allowed to circulate for 7 minutes, followed by heart perfusion first with PBS and then with Zn-buffered formalin. The RIP1-Tag2 pancreas and control organs (brain, kidney, liver, lung and spleen) were removed, fixed for one hour in formalin, washed with 1×PBS, placed in 30% sucrose for several hours, washed with 1×PBS, and embedded in OCT (Tissue-Tek). Each peptide was injected into at least three individual RIP1-Tag2 or normal mice at each of the different stages. To examine the localization of injected fluorescein-conjugated peptides, frozen sections ([…] thick) were cut on a cryostat, mounted in Vectashield Mounting Medium with DAPI (Vector Laboratories) and visualized under an inverted fluorescent microscope or a confocal microscope (Zeiss LSM 510 META).

[7] abbreviates: fluorescein-conjugated peptide i.v., 7 minutes circulation, FIG. 2.

T2 sequence (P05622 32-1098): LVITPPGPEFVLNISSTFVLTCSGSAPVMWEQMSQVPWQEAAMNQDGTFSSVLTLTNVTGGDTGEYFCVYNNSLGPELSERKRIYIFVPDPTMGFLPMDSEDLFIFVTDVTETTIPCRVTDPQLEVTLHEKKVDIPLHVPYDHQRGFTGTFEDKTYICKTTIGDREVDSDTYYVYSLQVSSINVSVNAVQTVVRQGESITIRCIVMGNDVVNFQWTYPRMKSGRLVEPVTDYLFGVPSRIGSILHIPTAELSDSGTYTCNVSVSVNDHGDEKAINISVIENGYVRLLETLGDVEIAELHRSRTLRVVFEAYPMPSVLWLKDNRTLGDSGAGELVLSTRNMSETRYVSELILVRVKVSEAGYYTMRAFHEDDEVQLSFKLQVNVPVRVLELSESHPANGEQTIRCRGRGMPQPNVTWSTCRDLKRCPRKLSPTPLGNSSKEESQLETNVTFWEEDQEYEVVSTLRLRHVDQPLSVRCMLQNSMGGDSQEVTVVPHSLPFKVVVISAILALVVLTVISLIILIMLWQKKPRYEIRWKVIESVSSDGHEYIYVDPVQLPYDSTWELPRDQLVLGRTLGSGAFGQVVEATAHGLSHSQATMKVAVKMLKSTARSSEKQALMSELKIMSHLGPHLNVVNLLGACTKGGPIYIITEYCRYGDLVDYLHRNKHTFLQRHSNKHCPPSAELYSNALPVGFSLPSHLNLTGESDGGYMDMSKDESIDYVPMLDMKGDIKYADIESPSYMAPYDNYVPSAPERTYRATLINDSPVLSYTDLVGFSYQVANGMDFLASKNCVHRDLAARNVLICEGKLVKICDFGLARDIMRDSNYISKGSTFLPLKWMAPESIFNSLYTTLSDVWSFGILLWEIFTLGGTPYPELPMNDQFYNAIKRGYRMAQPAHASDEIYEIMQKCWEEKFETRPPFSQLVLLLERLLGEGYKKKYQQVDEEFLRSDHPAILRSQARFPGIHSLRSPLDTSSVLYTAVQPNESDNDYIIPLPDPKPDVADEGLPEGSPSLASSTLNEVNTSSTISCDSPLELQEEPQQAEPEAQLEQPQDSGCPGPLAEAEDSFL
T1 sequence (P09619 33-1106, species assumed): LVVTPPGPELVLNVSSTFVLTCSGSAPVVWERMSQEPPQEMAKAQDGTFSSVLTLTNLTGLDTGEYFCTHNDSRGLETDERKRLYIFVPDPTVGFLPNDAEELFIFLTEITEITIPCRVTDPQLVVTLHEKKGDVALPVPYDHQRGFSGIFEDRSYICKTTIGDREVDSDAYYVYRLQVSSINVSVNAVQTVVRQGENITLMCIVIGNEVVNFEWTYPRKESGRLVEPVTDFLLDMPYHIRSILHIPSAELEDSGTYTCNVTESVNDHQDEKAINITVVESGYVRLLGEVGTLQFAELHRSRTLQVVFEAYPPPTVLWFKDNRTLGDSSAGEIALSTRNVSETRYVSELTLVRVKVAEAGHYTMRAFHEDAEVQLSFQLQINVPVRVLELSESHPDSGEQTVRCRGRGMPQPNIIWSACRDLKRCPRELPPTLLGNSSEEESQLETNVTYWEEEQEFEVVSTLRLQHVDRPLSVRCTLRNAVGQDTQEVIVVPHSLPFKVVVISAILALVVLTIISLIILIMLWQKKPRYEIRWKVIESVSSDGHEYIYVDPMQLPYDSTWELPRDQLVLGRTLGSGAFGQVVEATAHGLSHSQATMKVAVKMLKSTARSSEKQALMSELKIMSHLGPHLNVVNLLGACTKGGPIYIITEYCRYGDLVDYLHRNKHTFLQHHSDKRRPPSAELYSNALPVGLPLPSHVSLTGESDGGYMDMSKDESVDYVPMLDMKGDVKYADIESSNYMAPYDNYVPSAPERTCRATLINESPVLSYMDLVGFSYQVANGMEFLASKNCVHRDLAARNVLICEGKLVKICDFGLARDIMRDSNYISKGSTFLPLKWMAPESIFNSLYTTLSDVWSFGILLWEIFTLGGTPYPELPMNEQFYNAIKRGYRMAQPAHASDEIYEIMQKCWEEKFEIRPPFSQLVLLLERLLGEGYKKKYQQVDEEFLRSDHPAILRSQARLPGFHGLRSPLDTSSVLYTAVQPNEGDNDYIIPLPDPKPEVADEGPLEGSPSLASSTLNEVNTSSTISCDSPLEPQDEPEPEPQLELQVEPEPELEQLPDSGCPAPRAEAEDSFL

For CRGRRST [linear homing peptide], in assay [1], the “homing class of individual phage (angiogenic islets or tumors in vivo)” value is given as “home to both types of lesion”. In addition, in assay [2], the “homing to TC3 tumor” value was “did not home appreciably”. Further, the “homing to HPV tumor” value in assay [3] is reported as “did not home appreciably”. Also, the “binding to PDGFRβ-transfected cells” value with PDGFRβ [4] is “bind”. For the same substance, in the assay with PDGFRβ [5], the “co-localization with PDGFRβ” value is recorded as “almost complete co-localization”. Also, the “co-localization with PDGFRβ” value with PDGFRβ [5] (listed as CRGRRST) was “co-localize”. In assay [6] (setting [7]), the “localization in RIP1-Tag2 angiogenic islets” value is on record as “localizes”, the “localization in RIP1-Tag2 tumors” value is “localizes” and the “localization in normal islets” value was “little or no localization”. Also, the “homing selectivity of purified peptides” value in assay [6] (i.v. into 8-week or 12-week old RIP-Tag2 mice) was “both angiogenic islets and tumors”. Besides, in assay [6] (purified peptides i.v.), the “homing to normal islets, kidney, brain, liver, lung or spleen” value was “did not appreciably home”.

These data come from patent US7598341B2, “Molecules that selectively home to vasculature of premalignant or malignant lesions of the pancreas and other organs” (Burnham Institue for Medical Research, priority 2003, dated 2009).
